Experiment: xn = mol fraction of the nth substance listed

CCCC[n+]1ccn(C)c1.F[B-](F)(F)F + NC=O
101 kPa, x1 = 1
Conditions	viscosity [mPa·s]
308.15 K	58.4
318.15 K	38.7

O + C[C@@H](O)[C@H](N)C(=O)O + CCCCCCCCCCCCCCCC[n+]1ccccc1.[Cl-]
Conditions	electrical conductivity [S/m]
308.15 K, 101 kPa, x2 = 0, x3 = 0	6.7e-05

CCCC[n+]1ccn(C)c1.F[B-](F)(F)F + CC(C)C[C@H](N)C(=O)O + O
viscosity [mPa·s], 100 kPa
Conditions	293.15 K	298.15 K	303.15 K	308.15 K	313.15 K	318.15 K
x2 = 0, x1 = 0.0003729	1.03	0.917	0.835	0.751	0.693	0.638
x2 = 0, x1 = 0.0007257	1.062	0.951	0.868	0.789	0.736	0.681
x2 = 0, x1 = 0.0011	1.093	0.983	0.904	0.83	0.779	0.725

O=C1CCCCCN1 + CCO + CCCC[N+](CCCC)(CCCC)CCCC.[Cl-]
electrical conductivity [S/m], 101 kPa
Conditions	x1 = 0.0058, x3 = 0.0058	x1 = 0.00584, x3 = 0.0058	x1 = 0.00587, x3 = 0.00587	x1 = 0.0059, x3 = 0.0059	x2 = 0.555, x1 = 0.2225	x2 = 0.6648, x1 = 0.1676	x2 = 0.7728, x1 = 0.1136	x2 = 0.8892, x1 = 0.0554
295.65 K	–	–	–	–	0.218	0.2632	0.3032	–
298.15 K	–	–	–	–	0.232	0.268	0.31	–
300.65 K	–	0.0588	–	–	0.241	0.269	0.3143	–
303.15 K	–	–	–	0.0587	0.256	0.27	0.317	0.25
305.65 K	–	0.0586	–	–	0.2704	0.2713	0.317	0.25
308.15 K	–	0.0585	–	–	0.2842	0.2737	0.319	0.249
310.65 K	–	–	–	0.0585	0.2936	0.276	0.3224	0.248
313.15 K	–	0.0585	–	–	0.3023	0.278	0.325	0.248
315.65 K	–	–	–	0.0587	0.308	0.28	0.328	0.248
318.15 K	–	–	–	0.0587	0.3136	0.2821	0.329	0.248
320.65 K	–	0.0587	–	–	0.3131	0.2841	0.3303	0.246
323.15 K	–	0.0586	–	–	0.315	0.287	0.329	0.245
325.65 K	0.0584	–	–	–	0.3129	0.288	0.327	0.246
328.15 K	0.0576	–	–	–	–	0.289	–	0.246
330.65 K	–	0.0569	–	–	–	0.288	–	0.245
333.15 K	–	–	0.0562	–	–	0.288	–	0.245

— the CheMixHub ionic liquid set
